Data taken from US11306081B2, “Phenylacetamides as inhibitors of rock” (BRISTOL-MYERS SQUIBB COMPANY, priority 2017, dated 2022).

Biological target: ROCK2 (Homo sapiens (Human), UniProt O75116)
Assay: ROCK assay (LABCHIP 3000 peptide phosphorylation assay)
Assay type: biochemical
Settings: 5 μM ATP, 1.5 μM peptide substrate, dose-response
Experimental: The effectiveness of compounds of the present invention as ROCK inhibitors can be determined in a 30 μL assay containing 20 mM HEPES, pH 7.5, 20 mM MgCl2, 0.015% Brij-35, 4 mM DTT, 5 μM ATP and 1.5 μM peptide substrate (FITC-AHA-AKRRRLSSLRA-OH) (SEQ ID No. 1). Compounds were dissolved in DMSO so that the final concentration of DMSO was <2%, and the reaction was initiated with Rho kinase variants. After incubation, the reaction was terminated by the addition of EDTA and the phosphorylated and non-phosphorylated peptides separated using a LABCHIP® 3000 Reader (Caliper Life Sciences). […] Compounds were tested in dose-response format, and the inhibition of kinase activity was calculated at each concentration of compound. The inhibition data were fit using a curve-fitting program to determine the IC50; i.e., the concentration of compound required to inhibit 50% of kinase activity.

Sequence of ROCK2 (O75116 whole entry, species assumed): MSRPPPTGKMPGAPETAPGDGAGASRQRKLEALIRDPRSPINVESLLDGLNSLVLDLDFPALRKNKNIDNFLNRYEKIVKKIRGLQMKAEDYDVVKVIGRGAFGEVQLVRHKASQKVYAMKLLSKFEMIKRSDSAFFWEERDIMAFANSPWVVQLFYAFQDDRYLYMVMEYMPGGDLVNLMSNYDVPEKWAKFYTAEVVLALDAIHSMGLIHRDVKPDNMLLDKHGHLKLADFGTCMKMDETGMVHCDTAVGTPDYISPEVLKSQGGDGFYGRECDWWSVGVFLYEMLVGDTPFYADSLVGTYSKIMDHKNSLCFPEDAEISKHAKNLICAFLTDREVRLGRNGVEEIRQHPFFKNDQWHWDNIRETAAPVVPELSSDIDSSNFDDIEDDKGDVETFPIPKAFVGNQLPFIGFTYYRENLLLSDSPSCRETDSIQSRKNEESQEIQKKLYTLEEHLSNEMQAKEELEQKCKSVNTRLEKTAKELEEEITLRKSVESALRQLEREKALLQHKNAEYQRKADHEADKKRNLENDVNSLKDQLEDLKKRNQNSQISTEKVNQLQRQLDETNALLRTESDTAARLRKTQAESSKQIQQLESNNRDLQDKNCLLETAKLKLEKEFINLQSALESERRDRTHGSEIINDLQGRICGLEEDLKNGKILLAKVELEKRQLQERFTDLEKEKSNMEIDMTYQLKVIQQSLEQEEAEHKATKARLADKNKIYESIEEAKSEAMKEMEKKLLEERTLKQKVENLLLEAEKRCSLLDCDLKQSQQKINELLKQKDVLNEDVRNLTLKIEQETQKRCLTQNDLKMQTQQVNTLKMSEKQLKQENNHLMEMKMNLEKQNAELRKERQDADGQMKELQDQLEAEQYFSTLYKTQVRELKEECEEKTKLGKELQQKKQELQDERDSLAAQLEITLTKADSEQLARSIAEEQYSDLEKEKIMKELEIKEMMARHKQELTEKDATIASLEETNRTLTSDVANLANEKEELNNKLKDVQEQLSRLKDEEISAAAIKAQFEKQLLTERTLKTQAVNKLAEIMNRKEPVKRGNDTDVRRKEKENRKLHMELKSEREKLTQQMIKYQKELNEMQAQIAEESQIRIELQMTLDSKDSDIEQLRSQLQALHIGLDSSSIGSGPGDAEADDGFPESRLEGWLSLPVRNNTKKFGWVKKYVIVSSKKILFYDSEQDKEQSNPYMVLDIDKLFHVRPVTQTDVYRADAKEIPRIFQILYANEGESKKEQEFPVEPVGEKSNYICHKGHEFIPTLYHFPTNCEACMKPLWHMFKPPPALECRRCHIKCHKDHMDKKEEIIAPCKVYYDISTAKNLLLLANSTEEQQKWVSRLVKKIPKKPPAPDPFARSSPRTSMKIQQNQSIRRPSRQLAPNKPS

## Cn1cc(-c2ccc3sc(NC(=O)Cc4ccc(Oc5ncccc5C(N)=O)c(F)c4)nc3c2)c(C2CC2)n1 [Example 026, 2-(4-(2-((5-(3-cyclopropyl-1-methyl-1H-pyrazol-4-yl)benzo[d]thiazol-2-yl)amino)-2-oxoethyl)-2-fluorophenoxy)nicotin-amide]
  IC50: 0.008 µM

## Cc1nn(C)c(-c2ccc3sc(NC(=O)Cc4ccc(Oc5ncccc5C(N)=O)c(F)c4)nc3c2)c1C [Example 027, 2-(2-fluoro-4-(2-oxo-2-((5-(1,3,4-trimethyl-1H-pyrazol-5-yl)benzo[d]thiazol-2-yl)amino)ethyl)phenoxy) nicotinamide]
  IC50: 0.005 µM

## Cc1cc(-c2ccc3sc(NC(=O)Cc4ccc(Oc5ncccc5C(N)=O)c(F)c4)nc3c2)n(C)n1 [Example 028, 2-(4-(2-((5-(1,3-dimethyl-1H-pyrazol-5-yl)benzo[d]thiazol-2-yl)amino)-2-oxoethyl)-2-fluorophenoxy)nicotin-amide]
  IC50: 0.03 µM

## NC(=O)c1cccnc1Oc1ccc(CC(=O)Nc2nc3cc(-c4cnn(C(F)F)c4)ccc3s2)cc1F [Example 029, 2-(4-(2-((5-(1-(difluoromethyl)-1H-pyrazol-4-yl)benzo[d]thiazol-2-yl)amino)-2-oxoethyl)-2-fluorophenoxy)nicotin-amide]
  IC50: 0.009 µM

## Cn1nccc1-c1ccc2sc(NC(=O)Cc3ccc(Oc4ncccc4C(N)=O)c(F)c3)nc2c1 [Example 030, 2-(2-fluoro-4-(2-((5-(1-methyl-1H-pyrazol-5-yl)benzo[d]thiazol-2-yl)amino)-2-oxoethyl)phenoxy)nico-tinamide]
  IC50: 0.008 µM

## NC(=O)c1cccnc1Oc1ccc(CC(=O)Nc2nc3cc(-c4cn[nH]c4)ccc3s2)cc1F [Example 031, 2-(4-(2-((5-(1H-pyrazol-4-yl)benzo[d]thiazol-2-yl)amino)-2-oxoethyl)-2-fluorophenoxy)nicotin-amide]
  IC50: 0.008 µM

## NC(=O)c1cccnc1Oc1ccc(CC(=O)Nc2nc3cc(-c4c[nH]nc4C(F)(F)F)ccc3s2)cc1F [Example 032, 2-(2-fluoro-4-(2-oxo-2-((5-(3-(trifluoromethyl)-1H-pyrazol-4-yl)benzo[d]thiazol-2-yl)amino)ethyl)phenoxy) nicotinamide]
  IC50: 0.089 µM

## Cn1ccc(-c2ccc3sc(NC(=O)Cc4ccc(Oc5ncccc5C(N)=O)c(F)c4)nc3c2)n1 [Example 033, 2-(2-fluoro-4-(2-((5-(1-methyl-1H-pyrazol-3-yl)benzo[d]thiazol-2-yl)amino)-2-oxoethyl)phenoxy)nico-tinamide]
  IC50: 0.007 µM

## [2H]C([2H])([2H])n1ccc(-c2ccc3sc(NC(=O)Cc4ccc(Oc5ncccc5C(N)=O)c(F)c4)nc3c2)n1 [Example 034, 2-(2-fluoro-4-(2-((5-(1-(methyl-d3)-1H-pyrazol-3-yl)benzo[d]thiazol-2-yl)amino)-2-oxoethyl)phenoxy)nico-tinamide]
  IC50: 0.008 µM

## Cn1cc(-c2ccc3sc(NC(=O)Cc4ccc(Oc5ncccc5C(N)=O)c(F)c4)nc3c2)cn1 [Example 035, 2-(2-fluoro-4-(2-((5-(1-methyl-1H-pyrazol-4-yl)benzo[d]thiazol-2-yl)amino)-2-oxoethyl)phenoxy)nico-tinamide]
  IC50: 0.01 µM

## Cn1cc(-c2ccc3nc(NC(=O)Cc4ccc(Oc5ncccc5C(N)=O)c(F)c4)cn3c2)cn1 [Example 036, 2-(2-fluoro-4-(2-((6-(1-methyl-1H-pyrazol-4-yl)imidazo[1,2-a]pyridin-2-yl)amino)-2-oxoethyl)phenoxy)nico-tinamide]
  IC50: 0.048 µM

## Cn1cc(-c2ccc3nc(NC(=O)Cc4ccc(Oc5ncccc5C(N)=O)c(Cl)c4)cn3c2)cn1 [Example 037, 2-(2-chloro-4-(2-((6-(1-methyl-1H-pyrazol-4-yl)imidazo[1,2-a]pyridin-2-yl)amino)-2-oxoethyl)phenoxy)nico-tinamide]
  IC50: 0.034 µM

## Cn1cc(-c2ccc3c(c2)nc(NC(=O)Cc2ccc(Oc4ncccc4C(N)=O)c(F)c2)n3CC(F)(F)F)cn1 [Example 038, 2-(2-fluoro-4-(2-((5-(1-methyl-1H-pyrazol-4-yl)-1-(2,2,2-trifluoroethyl)-1H-benzo[d]imidazol-2-yl)amino)-2-oxoethyl)phenoxy)nico-tinamide]
  IC50: 0.03 µM

## Cc1sc(NC(=O)Cc2ccc(Oc3ncccc3C(N)=O)c(F)c2)nc1-c1cnc(N2CCN(C)CC2)nc1 [Example 039, 2-(2-fluoro-4-(2-((5-methyl-4-(2-(4-methylpiperazin-1-yl)pyrimidin-5-yl)thiazol-2-yl)amino)-2-oxoethyl)phenoxy)nico-tinamide]
  IC50: 0.183 µM

## COc1ncc(-c2nc(NC(=O)Cc3ccc(Oc4ncccc4C(N)=O)c(F)c3)sc2C)cn1 [Example 040, 2-(2-fluoro-4-(2-((4-(2-methoxypyrimidin-5-yl)-5-methylthiazol-2-yl)amino)-2-oxoethyl)phenoxy)nico-tinamide]
  IC50: 0.099 µM

## Cc1sc(NC(=O)Cc2ccc(Oc3ncccc3C(N)=O)c(F)c2)nc1-c1cncnc1 [Example 041, 2-(2-fluoro-4-(2-((5-methyl-4-(pyrimidin-5-yl)thiazol-2-yl)amino)-2-oxoethyl)phenoxy)nico-tinamide]
  IC50: 0.175 µM

## Cc1sc(NC(=O)Cc2ccc(Oc3ncccc3C(N)=O)c(F)c2)nc1-c1cnc(C(C)(C)O)nc1 [Example 042, 2-(2-fluoro-4-(2-((4-(2-(2-hydroxypropan-2-yl)pyrimidin-5-yl)-5-methylthiazol-2-yl)amino)-2-oxoethyl)phenoxy)nico-tinamide]
  IC50: 0.471 µM

## COc1cccc(-c2nc(NC(=O)Cc3ccc(Oc4ncccc4C(N)=O)c(F)c3)sc2C)n1 [Example 043, 2-(2-fluoro-4-(2-((4-(6-methoxypyridin-2-yl)-5-methylthiazol-2-yl)amino)-2-oxoethyl)phenoxy)nico-tinamide]
  IC50: 0.0696 µM

## Cc1sc(NC(=O)Cc2ccc(Oc3ncccc3C(N)=O)c(F)c2)nc1-c1ccncc1 [Example 044, 2-(2-fluoro-4-(2-((5-methyl-4-(pyridin-4-yl)thiazol-2-yl)amino)-2-oxoethyl)phenoxy)nico-tinamide]
  IC50: 0.024 µM

## Cc1sc(NC(=O)Cc2ccc(Oc3ncccc3C(N)=O)c(F)c2)nc1-c1cccc(C#N)n1 [Example 045, 2-(4-(2-((4-(6-cyanopyridin-2-yl)-5-methylthiazol-2-yl)amino)-2-oxoethyl)-2-fluorophenoxy)nicotin-amide]
  IC50: 0.021 µM

## Cc1sc(NC(=O)Cc2ccc(Oc3ncccc3C(N)=O)c(F)c2)nc1C1CC1 [Example 046, 2-(4-(2-((4-cyclopropyl-5-methylthiazol-2-yl)amino)-2-oxoethyl)-2-fluorophenoxy)nicotin-amide]
  IC50: 0.022 µM

## Cc1sc(NC(=O)Cc2ccc(Oc3ncccc3C(N)=O)c(F)c2)nc1-c1ccc(S(C)(=O)=O)cc1 [Example 047, 2-(2-fluoro-4-(2-((5-methyl-4-(4-(methylsulfonyl)phenyl)thiazol-2-yl)amino)-2-oxoethyl)phenoxy)nico-tinamide]
  IC50: 0.084 µM

## Cc1sc(NC(=O)Cc2ccc(Oc3ncccc3C(N)=O)c(F)c2)nc1-c1ccc(S(=O)(=O)C(C)C)cc1 [Example 048, 2-(2-fluoro-4-(2-((4-(4-(isopropylsulfonyl)phe-nyl)-5-methylthiazol-2-yl)amino)-2-oxoethyl)phenoxy)nico-tinamide]
  IC50: 0.112 µM

## NC(=O)c1cccnc1Oc1ccc(CC(=O)Nc2nc3ccccc3s2)cc1 [Example 049, 2-(4-(2-(benzo[d]thiazol-2-ylamino)-2-oxoethyl)phenoxy) nicotinamide]
  IC50: 0.194 µM

## Cc1ccc(-c2nc(NC(=O)Cc3ccc(Oc4ncccc4C(N)=O)cc3)sc2C)cc1Cl [Example 050, 2-(4-(2-((4-(3-chloro-4-methylphenyl)-5-methylthiazol-2-yl)amino)-2-oxoethyl)phenoxy) nicotinamide]
  IC50: 0.175 µM

## COc1ccc(-c2csc(NC(=O)Cc3ccc(Oc4ncccc4C(N)=O)cc3)n2)cc1OC [Example 051, 2-(4-(2-((4-(3,4-dimethoxyphenyl)thiazol-2-yl)amino)-2-oxoethyl)phenoxy) nicotinamide]
  IC50: 0.145 µM

## NC(=O)c1cccnc1Oc1ccc(CC(=O)Nc2nc(-c3ccccc3)cs2)cc1 [Example 052, 2-(4-(2-oxo-2-((4-phenylthiazol-2-yl)amino)ethyl)phe-noxy)nicotinamide]
  IC50: 0.177 µM

## COc1ccc2c(c1)CCc1sc(NC(=O)Cc3ccc(Oc4ncccc4C(N)=O)cc3)nc1-2 [Example 053, 2-(4-(2-((7-methoxy-4,5-dihydronaphtho[1,2-d]thiazol-2-yl)amino)-2-oxoethyl)phenoxy) nicotinamide]
  IC50: 0.021 µM

## NC(=O)c1cccnc1Oc1ccc(CC(=O)Nc2nc3ccccc3o2)cc1 [Example 054, 2-(4-(2-(benzo[d]oxazol-2-ylamino)-2-oxoethyl)phenoxy) nicotinamide]
  IC50: 0.364 µM

## Cc1nnc(NC(=O)Cc2ccc(Oc3ncccc3C(N)=O)cc2)s1 [Example 055, 2-(4-(2-((5-methyl-1,3,4-thiadiazol-2-yl)amino)-2-oxoethyl)phenoxy) nicotinamide]
  IC50: 1.11 µM

## COc1cc(C#N)c2c(c1)CCN2C(=O)Cc1ccc(Oc2ncccc2C(N)=O)cc1 [Example 056, 2-(4-(2-(7-cyano-5-methoxyindolin-1-yl)-2-oxoethyl)phenoxy) nicotinamide]
  IC50: 1.09 µM

## NC(=O)c1cccnc1Oc1ccc(CC(=O)Nc2nc(-c3ccc4c(c3)OCCO4)cs2)cc1 [Example 057, 2-(4-(2-((4-(2,3-dihydrobenzo[b][1, 4]dioxin-6-yl)thiazol-2-yl)amino)-2-oxoethyl)phenoxy) nicotinamide]
  IC50: 0.186 µM

## NC(=O)c1cccnc1Oc1ccc(CC(=O)Nc2nnc(-c3ccccc3)s2)cc1 [Example 058, 2-(4-(2-oxo-2-((5-phenyl-1,3,4-thiadiazol-2-yl)amino)ethyl)phe-noxy)nicotinamide]
  IC50: 0.419 µM
